Assay results from US20150366932A1, “METHODS FOR PRODUCING DIKETOPIPERAZINES AND COMPOSITIONS CONTAINING DIKETOPIPERAZINES” (AMPIO PHARMACEUTICALS, INC., priority 2013, published 2015).
Entries after “also recorded” stand apart in the source; their conditions may differ.

Legend:
[1] = test system: activated PBMC and T-lymphocytes; conditions: activated PBMC and T-lymphocytes in vitro; cited from earlier work
DPP-IV = molecular target: T1, DPP-IV (Homo sapiens, UniProt P27487); assay: DA-DKP formation in 5% commercial HSA heated at 60° C., <5 kDa fraction by LCMS; type: biochemical
T1 construct: the Cohn manufacturing process which isolates other plasma components such as DPP-IV; tissue CSL Behring LLC; Grifols Biologicals Inc; Octapharma USA Inc. (5% HSA products that contain the enzyme); host or cells: human plasma (Cohn fractionation; commercial 5% HSA solution)
T1 sequence (P27487 39-766 limits assumed): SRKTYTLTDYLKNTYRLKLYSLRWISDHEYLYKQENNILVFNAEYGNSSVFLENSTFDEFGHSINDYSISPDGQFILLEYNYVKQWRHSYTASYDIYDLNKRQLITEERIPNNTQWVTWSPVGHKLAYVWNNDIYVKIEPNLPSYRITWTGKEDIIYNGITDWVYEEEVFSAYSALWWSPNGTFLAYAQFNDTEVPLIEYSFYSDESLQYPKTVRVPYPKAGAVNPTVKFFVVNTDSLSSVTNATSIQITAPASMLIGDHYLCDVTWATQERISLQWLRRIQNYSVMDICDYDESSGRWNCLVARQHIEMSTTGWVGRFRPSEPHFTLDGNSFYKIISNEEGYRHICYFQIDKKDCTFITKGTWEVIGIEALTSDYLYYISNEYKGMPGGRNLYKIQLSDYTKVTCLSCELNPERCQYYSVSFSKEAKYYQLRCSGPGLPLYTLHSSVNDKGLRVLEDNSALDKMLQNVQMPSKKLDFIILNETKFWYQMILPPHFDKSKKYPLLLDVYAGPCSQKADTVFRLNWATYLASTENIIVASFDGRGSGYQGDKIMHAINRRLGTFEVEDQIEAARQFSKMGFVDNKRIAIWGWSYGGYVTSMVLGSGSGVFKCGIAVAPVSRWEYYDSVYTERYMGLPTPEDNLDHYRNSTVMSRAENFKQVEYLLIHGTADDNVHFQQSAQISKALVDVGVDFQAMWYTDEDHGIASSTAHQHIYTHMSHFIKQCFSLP
Protocol: For the analysis of DA-DKP formation, an aliquot was added to a microcentrifugal filter (Vivaspin 2, MWCO 5,000, Sartorius Stedim Biotech, Goettingen, Germany). Filters were centrifuged at 3,500 rpm for 30 minutes at room temperature. The <5 kDa fraction was collected and transferred to a separate, storage tube for LCMS analysis.
Each <5 kDa fraction & DA-DKP synthetic standard (20-2000 ng/mL) were spiked with 0.01 mM L-Tryptophan-d5 (indole-d5) which was used as an internal standard. 50 μL was injected into a strong anion exchange column (Spherisorb, S5 SAX 250 mm×4.0 mm, Waters, Milford, Mass., USA) connected to high performance liquid chromatography (HPLC, Waters 2795 Separations Module, Milford, Mass., USA) coupled to a mass spectrometer (LCT-TOF, Micromass, UK). […]
The output of the HPLC was split 1:20 (v/v) and injected into the mass spectrometer using negative electrospray ionization (−ESI) with a scan range of 80 to 1000 m/z, cone voltage of 30 eV, source temperature of 100° C., and gas temperature of 300° C. DA-DKP was measured by monitoring [M]=185, which corresponds to DA-DKP minus a single proton (—H+). The straight chain of DA-DKP, Asp-Ala, can also be analyzed with this method by monitoring [M]=203.
The formation of the DKP, DA-DKP, was measured in a commercial HSA solution heated at 60° C. in the presence or absence of a known DPP-IV inhibitor (diprotin A). […]

[2] = molecular target: T2, dipeptidyl peptidase IV (DPP-IV) (Homo sapiens, UniProt P27487); assay: DPP-IV activity assay with chromogenic substrate Gly-Pro-pNA in HSA solutions; type: biochemical; conditions: 1 mM diprotin A pre-incubated 15 minutes at 37° C.; Gly-Pro-pNA 1 mM; 24 hour incubation at 37° C.
T2 construct: the Cohn manufacturing process which isolates other plasma components such as DPP-IV; tissue CSL Behring LLC; Grifols Biologicals Inc; Octapharma USA Inc. (5% HSA products that contain the enzyme); host or cells: human plasma (Cohn fractionation; commercial 5% HSA solution)
T2 sequence (P27487 39-766 limits assumed): as above
Protocol: DPP-IV activity was assayed by using a chromogenic substrate, Gly-Pro-pNA, as described in E. Nemoto, S. Sugawara, H. Takada, et al., Increase of CD26/dipeptidyl peptidase IV expression on human gingival fibroblasts upon stimulation with cytokines and bacterial components. […] All reactions were carried out in DPP-IV assay buffer (pH 7.6) consisting of 0.1M HEPES, 0.12M NaCl, 5 mM KCl, 8 mM glucose, and 10 mg/ml bovine serum albumin (BSA). 5% commercial HSA, recombinant HSA, or buffer blank (0.9% NaCl) were combined with 1 mM Gly-Pro-pNA (DPP-IV substrate) in assay buffer or assay buffer only (−CON). Incubations were performed at 37° C. or 60° C. for 2-24 hours. For DPP-IV inhibition studies, 1 mM diprotin A in assay buffer was pre-incubated with the HSA solutions for 15 minutes at 37° C. prior to DPP-IV substrate addition. All incubations were read at 405 nm (SpectraMax M2 spectrophotometer, Molecular Devices LLC, Sunnyvale, Calif., USA). Each reading at 405 nm was corrected by subtracting the A405 for the DPP-IV substrate-containing incubation from the corresponding A405 for the −CON incubation for each HSA solution tested.
The amount of pNA produced in μM was calculated based on the pNA molar extinction coefficient in HEPES buffer (see R. Lottenberg, C. M. Jackson, Solution composition dependent variation in extinction coefficients for p-nitroaniline. Biochim Biophys Acta 742 (1983) 558-64). […] Groups were compared using a two tailed students' T-test with a significance level at p<0.05. All data is reported as mean±SD.
Dipeptidyl peptidase IV (DPP-IV) activity was assessed in commercial preparations of human serum albumin (HSA). […] The resulting liberation of a chromogen, pNA, was measured spectrophotometrically at 405 nm.

neurokinin-1 receptor = neurokinin-1 receptor (Homo sapiens, UniProt P25103); conditions: cited from earlier work
Chain of neurokinin-1 receptor (P25103 whole entry): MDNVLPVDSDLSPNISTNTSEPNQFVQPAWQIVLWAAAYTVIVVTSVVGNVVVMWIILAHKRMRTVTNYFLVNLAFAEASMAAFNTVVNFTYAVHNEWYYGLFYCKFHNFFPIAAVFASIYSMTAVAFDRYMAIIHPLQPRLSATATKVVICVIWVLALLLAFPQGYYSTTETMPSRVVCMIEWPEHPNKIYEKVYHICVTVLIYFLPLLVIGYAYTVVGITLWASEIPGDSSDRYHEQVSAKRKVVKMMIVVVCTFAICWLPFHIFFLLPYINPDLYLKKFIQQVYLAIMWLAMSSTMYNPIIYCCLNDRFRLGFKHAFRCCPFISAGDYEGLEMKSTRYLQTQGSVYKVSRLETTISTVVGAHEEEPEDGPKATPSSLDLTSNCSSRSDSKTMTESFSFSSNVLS

In the case of `CC1NC(=O)C(CC(=O)O)NC1=O` (centres unmarked) [DA-DKP, 3-methyl-2,5-diketopiperazine-6-acetic acid], the Immunosuppressive effects [1] is listed as “immunosuppressive effects”.
For Ile-Pro-Ile [diprotin A], the “Decrease of amount of DA-DKP produced with inhibitor” value (DPP-IV; 24 hour period, commercial HSA) was about 3 fold, the “Increase in DA-DKP production in the presence of the DPP-IV inhibitor” value (DPP-IV; 24 hours, 5% commercial HSA plus diprotin A) was 10% and the “DPP-IV activity in commercial HSA in the presence of DPP-IV inhibitor” value [2] was “completely suppressed; also recorded: complete suppression of DPP-IV activity; also recorded: abolished”.
In the case of `CC(=O)N[C@@H](Cc1c[nH]c2ccccc12)C(=O)O` [NAT, N-acetyl-tryptophan], the “Antagonism of the neurokinin-1 receptor” value (neurokinin-1 receptor) is given as “well-known antagonist”.
